{"source": "patent US8198305B2", "about": "“1,2-benzisoxazol-3-yl compounds” (Concert Pharmaceuticals Inc., priority 2007, dated 2012)", "origin": "cited, not measured here", "conditions": "phase III clinical trial", "note": "Like-named read-outs stand apart in the source and are kept apart here.", "data": [{"compound": "COc1cc(C(C)=O)ccc1OCCCN1CCC(c2noc3cc(F)ccc23)CC1", "note": "[iloperidone, 1-[4-[3-[4-(6-fluoro-1,2-benzisoxazol-3-yl)piperidin-1-yl]propoxy]-3-methoxyphenyl]ethanone]", "values": [{"measurement": "QTc prolongation", "setting": "good metabolizers of iloperidone", "result": 10.4, "unit": "ms"}, {"measurement": "QTc prolongation", "setting": "poor metabolizers of iloperidone", "result": 15.0, "unit": "ms"}]}]}
